Assay results: patent US20080021217A1, “HETEROCYCLIC INHIBITORS OF RHO KINASE” (priority 2006, published 2008)

What was measured:
[1] = target: T1, recombinant N-terminal GST-tagged human Rho kinase 1 (ROCK1, amino acids 1-535) (Homo sapiens, UniProt Q13464); test: In vitro Rho kinase assay (luciferase-based ATP consumption), ROCK1; assay type: biochemical
T1 construct: ROCK1, amino acids 1-535, Invitrogen Inc., cat. #PV-3691; GST (N); purchased Invitrogen Inc. PV-3691
Method: (§1) Rho kinase biochemical assays described below depend on firefly luciferase-based, indirect measurement of total ATP consumption by the kinase following incubation with substrate and ATP. 25 μl of Rho kinase assay buffer (20 mM Tris-HCL [pH 7.5], 1 mM MgCl2, 0.4 mM CaCl2, 0.15 mM EGTA, 0.1 mg/ml bovine serum albumin) containing 0.82 μg/ml of recombinant N-terminal GST-tagged human Rho kinase 1 (ROCK1, amino acids 1-535, Invitrogen Inc., cat. #PV-3691) or recombinant N-terminal GST-tagged human Rho kinase 2 (ROCK2, amino acids 1-552, Invitrogen Inc., cat #PV3759), 100 μg/ml S6 peptide substrate (related to amino acids 218-249 of the human 40S ribosomal protein S6, and suitable for ROCK1 or ROCK2, e.g. Upstate/Millipore Inc., cat #12-420), and 3 µM ATP are dispensed to wells of a 384 multi-well opaque plate. The plate is centrifuged for 30 seconds at approximately 200×g. 240 nl of test compound in DMSO is dispensed to each well by passive pin transfer. The lag phase of this in vitro kinase reaction permits addition of compounds soon after the reaction initiates. The reaction is allowed to incubate at 30° C. for 2 hours. The assay plates are sealed and maintained in a humidified environment. After 2 hours, 25 μl of easyLite protein kinase assay reagent (Perkin-Elmer, Inc.) is dispensed. After an additional 10 minute incubation at room temperature (about 22° C.), luminescence activity is measured on a Molecular Devices Analyst multi-mode plate reader or other suitable plate reader. Kinase inhibition results in less ATP consumption, and therefore increased luminescence signal. Negative control activity is measured with DMSO lacking any test compound. The positive control is 2-methyl-1-(4-methylisoquinolin-5-ylsulfonyl)perhydro-1,4-diazepine hydrochloride (aka H-1152P, HCl salt). Efficacy is measured as a percentage of positive control activity. […] In some cases, kinase reactions and compound testing are performed in 1536 multi-well plates under similar conditions, with assay volumes appropriately scaled. The designated NT means the cited example was not tested.

[2] = target: T2, recombinant N-terminal GST-tagged human Rho kinase 2 (ROCK2, amino acids 1-552) (Homo sapiens, UniProt O75116); test: In vitro Rho kinase assay (luciferase-based ATP consumption), ROCK2; assay type: biochemical
T2 construct: ROCK2, amino acids 1-552, Invitrogen Inc., cat #PV3759; GST (N); purchased Invitrogen Inc. PV3759
T2 sequence (O75116 1-552): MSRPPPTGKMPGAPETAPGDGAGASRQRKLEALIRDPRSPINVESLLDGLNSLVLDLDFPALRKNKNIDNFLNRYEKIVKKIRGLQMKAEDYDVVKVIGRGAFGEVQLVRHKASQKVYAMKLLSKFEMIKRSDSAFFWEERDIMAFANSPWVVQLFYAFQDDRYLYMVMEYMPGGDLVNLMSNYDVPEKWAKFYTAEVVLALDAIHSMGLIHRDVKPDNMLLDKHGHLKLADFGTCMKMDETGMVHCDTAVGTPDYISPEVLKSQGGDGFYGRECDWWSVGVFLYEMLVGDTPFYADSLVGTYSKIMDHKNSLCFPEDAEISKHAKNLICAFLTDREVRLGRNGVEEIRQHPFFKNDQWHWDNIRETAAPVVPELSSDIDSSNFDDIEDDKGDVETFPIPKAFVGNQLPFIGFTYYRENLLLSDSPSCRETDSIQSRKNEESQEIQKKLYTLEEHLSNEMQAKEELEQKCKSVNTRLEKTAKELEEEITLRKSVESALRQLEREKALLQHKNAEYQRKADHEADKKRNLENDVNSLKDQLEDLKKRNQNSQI
Method: as §1

T1 sequence (Q13464 1-535): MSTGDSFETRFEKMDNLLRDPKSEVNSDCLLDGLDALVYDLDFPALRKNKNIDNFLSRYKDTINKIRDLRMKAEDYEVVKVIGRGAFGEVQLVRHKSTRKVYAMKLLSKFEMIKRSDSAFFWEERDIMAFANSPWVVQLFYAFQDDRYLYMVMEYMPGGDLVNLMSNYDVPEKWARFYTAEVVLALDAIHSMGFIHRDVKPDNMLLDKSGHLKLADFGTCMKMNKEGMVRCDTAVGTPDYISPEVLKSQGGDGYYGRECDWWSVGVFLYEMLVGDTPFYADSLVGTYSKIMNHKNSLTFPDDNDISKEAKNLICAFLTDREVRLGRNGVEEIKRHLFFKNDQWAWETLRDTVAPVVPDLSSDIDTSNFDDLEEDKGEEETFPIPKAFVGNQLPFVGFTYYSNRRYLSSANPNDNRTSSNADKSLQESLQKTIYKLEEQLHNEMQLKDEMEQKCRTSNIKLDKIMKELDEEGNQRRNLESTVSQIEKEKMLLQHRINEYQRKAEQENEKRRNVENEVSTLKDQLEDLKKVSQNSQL

Structure (SMILES)	IC50 [1] [µM]	IC50 [2] [µM]
COc1cccc(C(=O)NCc2nc(-c3ccncc3)n[nH]2)c1 [Example 18, 3-methoxy-N-((3-(pyridin-4-yl)-1H-1,2,4-triazol-5-yl)methyl)benzamide]	> 5	> 5
O=C(NCc1nc(-c2ccncc2)n[nH]1)c1n[nH]c2ccccc12 [Example 33, N-((3-(Pyridin-4-yl)-1H-1,2,4-triazol-5-yl)methyl)-1H-indazole-3-carboxamide]	> 5	< 5
CS(=O)(=O)Nc1ccc(C(=O)NCc2nc(-c3ccncc3)n[nH]2)cc1 [Example 44, 4-(Methylsulfonamido)-N-((3-(pyridin-4-yl)-1H-1,2,4-triazol-5-yl)methyl)benzamide]	> 5	> 5
O=C(c1cccs1)N1CCn2nc(-c3ccncc3)nc2C1 [Example 62, (2-(Pyridin-4-yl)-5,6-dihydro-[1,2,4]triazolo[1,5-a]pyrazin-7(8H)-yl)(thiophen-2-yl)methanone]	> 5	> 5
COc1ccc(C(=O)NCc2nc(-c3ccncc3)n[nH]2)cc1C [Example 40, 4-Methoxy-3-methyl-N-((3-(pyridin-4-yl)-1H-1,2,4-triazol-5-yl)methyl)benzamide]	> 5	> 5
COc1ccc(C(=O)NCc2nc(-c3ccncc3)no2)cc1 [Example 4, 4-methoxy-N-((3-(pyridin-4-yl)-1,2,4-oxadiazol-5-yl)methyl)benzamide]	> 5	> 5
O=C(NCc1nc(-c2ccncc2)no1)c1cccs1 [Example 2, N-((3-(pyridin-4-yl)-1,2,4-oxadiazol-5-yl)methyl)thiophene-2-carboxamide]	> 5	> 5
Cc1cccc(C(=O)NCc2c[nH]c(-c3ccncc3)n2)c1O [Example 13, 2-hydroxy-3-methyl-N-((2-(pyridin-4-yl)-1H-imidazol-4-yl)methyl)benzamide]	> 5	> 5
Oc1ccc(C(O)CCc2nc(-c3ccncc3)n[nH]2)cc1 (centres unmarked) [Example 64, 4-(1-hydroxy-3-(3-(pyridin-4-yl)-1H-1,2,4-triazol-5-yl)propyl)phenol]	> 5	> 5
O=C(NCc1nnc(-c2ccnc3[nH]ccc23)o1)c1ccc(O)cc1O [Example 76, N-((5-(1H-Pyrrolo[2,3-b]pyridin-4-yl)-1,3,4-oxadiazol-2-yl)methyl)-2,4-dihydroxybenzamide]	< 5	< 5
CC(C)c1cccc(C(=O)NCc2nc(-c3ccncc3)n[nH]2)c1O [Example 41, 2-Hydroxy-3-isopropyl-N-((3-(pyridin-4-yl)-1H-1,2,4-triazol-5-yl)methyl)benzamide]	< 5	< 5
O=S(=O)(NCc1nc(-c2ccncc2)n[nH]1)c1ccc(OCc2ccccc2)cc1 [Example 54, 4-(Benzyloxy)-N-((3-(pyridin-4-yl)-1H-1,2,4-triazol-5-yl)methyl)benzenesulfonamide]	> 5	> 5
O=C(NCc1nc(-c2ccncc2)n[nH]1)c1ccccc1O [Example 25, 2-hydroxy-N-((3-(pyridin-4-yl)-1H-1,2,4-triazol-5-yl)methyl)benzamide]	< 5	< 5
Cc1c(Cl)ccc(S(=O)(=O)NCc2nc(-c3ccncc3)n[nH]2)c1O [Example 32, 4-Chloro-2-hydroxy-3-methyl-N-((3-(pyridin-4-yl)-1H-1,2,4-triazol-5-yl)methyl)benzenesulfonamide]	> 5	> 5
CN(Cc1nc(-c2ccncc2)n[nH]1)C(=O)c1ccc(O)cc1O [Example 58, 2,4-Dihydroxy-N-methyl-N-((3-(pyridin-4-yl)-1H-1,2,4-triazol-5-yl)methyl)benzamide]	> 5	> 5
CN(Cc1nc(-c2ccncc2)n[nH]1)C(=O)c1cccs1 [Example 57, N-Methyl-N-((3-(pyridin-4-yl)-1H-1,2,4-triazol-5-yl)methyl)thiophene-2-carboxamide]	> 5	> 5

Next, values leading:

IC50 [1] [µM]	IC50 [2] [µM]	Structure (SMILES)
< 5	< 5	O=C(NCc1nc(-c2ccncc2)c[nH]1)c1cccs1 [Example 5, N-((4-(pyridin-4-yl)-1H-imidazol-2-yl)methyl)thiophene-2-carboxamide]
< 5	< 5	CC(C)(C)OC(=O)NC[C@H](NC(=O)c1ccc(O)cc1O)c1nc(-c2ccncc2)n[nH]1 [Example 79, (S)-tert-Butyl 2-(2,4-dihydroxybenzamido)-2-(3-(pyridin-4-yl)-1H-1,2,4-triazol-5-yl)ethylcarbamate]
< 5	< 5	O=C(NCc1nc(-c2ccncc2)n[nH]1)c1cccs1 [Example 16, N-((3-(pyridin-4-yl)-1H-1,2,4-triazol-5-yl)methyl)thiophene-2-carboxamide]
< 5	< 5	O=C(NCc1nc(-c2ccncc2)n[nH]1)c1ccc(CO)cc1 [Example 51, 4-(Hydroxymethyl)-N-((3-(pyridin-4-yl)-1H-1,2,4-triazol-5-yl)methyl)benzamide]
< 5	< 5	COc1ccc(C(=O)NCc2nc(-c3ccncc3)n[nH]2)cc1 [Example 19, 4-methoxy-N-((3-(pyridin-4-yl)-1H-1,2,4-triazol-5-yl)methyl)benzamide]
< 5	< 5	CC(C)(C)OC(=O)NCC[C@H](NC(=O)c1ccc(O)cc1O)c1nc(-c2ccncc2)n[nH]1 [Example 77, (S)-tert-Butyl 3-(2,4-dihydroxybenzamido)-3-(3-(pyridin-4-yl)-1H-1,2,4-triazol-5-yl)propylcarbamate]
< 5	< 5	Cc1c(O)ccc(C(=O)NCc2nc(-c3ccncc3)n[nH]2)c1O [Example 46, 2,4-Dihydroxy-3-methyl-N-((3-(pyridin-4-yl)-1H-1,2,4-triazol-5-yl)methyl)benzamide]
< 5	< 5	O=C(NCc1nc(-c2c[nH]c3ncccc23)n[nH]1)c1cccs1 [Example 70, N-((3-(1H-pyrrolo[2,3-b]pyridin-3-yl)-1H-1,2,4-triazol-5-yl)methyl)thiophene-2-carboxamide]
< 5	< 5	O=C(NCc1nc(-c2ccncc2)n[nH]1)c1nccs1 [Example 20, N-((3-(pyridin-4-yl)-1H-1,2,4-triazol-5-yl)methyl) thiazole-2-carboxamide]
< 5	> 5	O=C(NCc1nc(-c2ccncc2)n[nH]1)c1cccc2c1OCC2 [Example 43, N-((3-(pyridin-4-yl)-1H-1,2,4-triazol-5-yl)methyl)-2,3-dihydrobenzofuran-7-carboxamide]
< 5	< 5	Clc1ccc(SCc2nc(-c3ccncc3)n[nH]2)cc1 [Example 80]
< 5	< 5	O=C(CCc1nc(-c2ccncc2)n[nH]1)c1ccc(O)cc1 [Example 63, 1-(4-hydroxyphenyl)-3-(3-(pyridin-4-yl)-1H-1,2,4-triazol-5-yl)propan-1-one]
< 5	< 5	O=C(NCc1nc(-c2c[nH]c3ncccc23)cs1)c1cccs1 [Example 75, N-((4-(1H-pyrrolo [2,3-b]pyridin-3-yl)thiazol-2-yl)methyl)thiophene-2-carboxamide]
< 5	< 5	CC(NC(=O)c1ccc(O)cc1O)c1nc(-c2ccncc2)n[nH]1 (centres unmarked) [Example 66, 2,4-Dihydroxy-N-(1-(3-(pyridin-4-yl)-1H-1,2,4-triazol-5-yl)ethyl)benzamide]
< 5	< 5	O=C(NCc1nc(-c2ccncc2)co1)c1ccc(O)cc1O [Example 8, 2,4-dihydroxy-N-((4-(pyridin-4-yl)oxazol-2-yl)methyl)benzamide]
< 5	< 5	CC(NC(=O)c1cccs1)c1nc(-c2ccncc2)n[nH]1 (centres unmarked) [Example 65, N-(1-(3-(Pyridin-4-yl)-1H-1,2,4-triazol-5-yl)ethyl)thiophene-2-carboxamide]
< 5	< 5	Cc1csc(C(=O)NCc2nc(-c3ccncc3)n[nH]2)c1 [Example 48, 4-Methyl-N-((3-(pyridin-4-yl)-1H-1,2,4-triazol-5-yl)methyl)thiophene-2-carboxamide]
< 5	< 5	O=C(NCc1nc(-c2ccncc2)n[nH]1)c1ccc(O)cc1 [Example 28, 4-hydroxy-N-((3-(pyridin-4-yl)-1H-1,2,4-triazol-5-yl)methyl)benzamide]
